Measurements reported in US5618726A, “Biodegradable azo dyes” (priority 1994, dated 1997).

Columns and labels:
[1] = target: T1, horseradish peroxidase type II (Armoracia rusticana, UniProt P00433); experiment: Oxidation of azo dyes by horseradish peroxidase preparation; assay type: biochemical; conditions: pH 8, 37° C., H2O2
T1 sequence (P00433 31-338): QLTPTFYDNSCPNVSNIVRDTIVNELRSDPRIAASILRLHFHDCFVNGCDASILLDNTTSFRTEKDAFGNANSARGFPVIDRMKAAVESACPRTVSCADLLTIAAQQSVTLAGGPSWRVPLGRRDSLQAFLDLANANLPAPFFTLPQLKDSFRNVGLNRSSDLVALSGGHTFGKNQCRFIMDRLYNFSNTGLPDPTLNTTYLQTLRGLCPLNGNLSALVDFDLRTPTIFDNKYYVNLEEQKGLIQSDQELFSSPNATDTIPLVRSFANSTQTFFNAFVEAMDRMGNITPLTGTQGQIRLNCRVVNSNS
Experimental: The reaction was started with the addition of 100 μl of 50 mM H2 O2 and was followed for 1 min at 37° C. Controls were run with no addition of H2 O2 or with the addition of the hemeperoxidase inhibitor KCN (final concentration 25 μM).

ligninase = experiment: Oxidation of dyes by P. chrysosporium ligninase (crude preparation); assay type: biochemical, Phanerochaete chrysosporium; conditions: for Oxidation rate of azo dyes, P. chrysosporium Ligninase: crude enzyme, conditions specific for ligninase
Method in brief: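 Crude P. chrysosporium ligninase oxidation of dyes, assayed by a previously reported method; conditions as for acid yellow 9, readings every 30 s for up to 15 minutes.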

S. chromofuscus A11 = conditions: for Degradation (%) after Streptomyces cultivation, strain A11: streptomyces chromofuscus a11 culture, 336 h; for Decolorization of growth medium by S. chromofuscus A11: both 50 and 100 ppm
Experimental: (§1) Microbiol., 1984, 130:2905-2913.
(§2) Replicate sterile controls also were run in each experiment.
The Streptomyces were grown on the same media and under the same conditions as previously described. […] Thus, the spectrophotometric assays for substrates 1-12 were carried out at their specific isobastic points. Degradation was calculated as percent of substrates removed from culture broth, considering the evaporation factor (around 10%).

[2] = tested on: S. chromofuscus A11 extracellular peroxidase; experiment: Oxidation of azo dyes by S. chromofuscus A11 crude enzyme preparation; assay type: biochemical, Streptomyces chromofuscus A11; conditions: pH 8, 37° C., H2O2
Method in brief: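 Enzyme from 48 h S. chromofuscus A11 culture supernatant, concentrated, ammonium sulfate-precipitated, dialyzed in 20 mM HEPES pH 8; yellow Sephadex G-25 fraction used. Reaction started with 100 μl 50 mM H2O2, followed 1 min at 37° C; controls without H2O2 or with 25 μM KCN.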

[3] = tested on: Phanerochaete chrysosporium; experiment: Substrate removal / decolorization by P. chrysosporium culture; assay type: cell-based; conditions: for % Decolorization, P. chrysosporium: 14 days
Experimental: Environ. Microbiol., 1981, 42:290-296), with the addition of 75 mg adenine (6-aminopurine) and 27 mg L-phenylalanine-per-liter. This addition accelerated the growth of the fungus without inhibiting ligninase activity. […] […] Cultures were incubated at 37° C. for 7 to 15 days with shaking (250 rpm). Solid agar media were also employed.

Mn(II)-peroxidase = experiment: Oxidation of dyes by P. chrysosporium Mn(II)-peroxidase; assay type: biochemical, Phanerochaete chrysosporium; conditions: crude enzyme, conditions specific for Mn(II)-peroxidase
S. rochei A10 = assay type: cell-based; conditions: streptomyces rochei a10 culture, 336 h
Description: as §1, §2

S. diastaticus A13 = assay type: cell-based; conditions: streptomyces diastaticus a13 culture, 336 h
Description: as §1, §2

S. diastaticus A12 = assay type: cell-based; conditions: streptomyces diastaticus a12 culture, 336 h
Description: as §1, §2

[4] = beginning concentration 100 ppm
[5] = beginning concentration 150 ppm
[6] = beginning concentration 200 ppm
[7] = beginning concentration 300 ppm

Row | SMILES | Oxidation rate of azo dyes, Horseradish peroxidase [1] | Oxidation rate of azo dyes, P. chrysosporium Ligninase (ligninase) | Oxidation / decolorization by ligninase (ligninase; pH3, 0.2 mM hydrogen peroxide, 15-minute incubation) | Degradation (%) after Streptomyces cultivation, strain A11 (S. chromofuscus A11) | Oxidation rate of azo dyes, S. chromofuscus peroxidase [2] | Concentration of substrate after ten days cultivation with P. chrysosporium [3, 4] | Concentration of substrate after ten days cultivation with P. chrysosporium [3, 5] | Concentration of substrate after ten days cultivation with P. chrysosporium [3, 6] | Concentration of substrate after ten days cultivation with P. chrysosporium [3, 7] | Degradation by Phanerochaete fungus ([3]; growth period of seven days, starting dye 150-200 ppm (FIG. 3), 10080 min) | % Decolorization, P. chrysosporium ([3]; initial concn 150 ppm) | % Decolorization, P. chrysosporium ([3]; initial concn 300 ppm) | Oxidation rate of azo dyes, P. chrysosporium Mn-peroxidase (Mn(II)-peroxidase) | Degradation (%) after Streptomyces cultivation, strain A10 (S. rochei A10) | Degradation (%) after Streptomyces cultivation, strain A13 (S. diastaticus A13) | Degradation (%) after Streptomyces cultivation, strain A12 (S. diastaticus A12) | Decolorization of growth medium by S. chromofuscus A11 (S. chromofuscus A11)
1 | COc1cc(N=Nc2ccc(S(=O)(=O)O)cc2)ccc1O [compound 2] | 18.19 μmoles per minute per ml | 0.72 μmoles per minute per ml | not detected | 73% | 3.68 μmoles per minute per ml | 2.493 ppm | 6.350 ppm | 10.068 ppm | 7.318 ppm | 90% | 97% | 94% | 8.19 μmoles per minute per ml | 77% | 18% | 43% | –
2 | Cc1cc(N=Nc2ccc(S(=O)(=O)O)cc2)cc(C)c1O [compound 3] | 30.68 μmoles per minute per ml | 0.42 μmoles per minute per ml | – | 73% | 17.20 μmoles per minute per ml | 0.358 ppm | 1.223 ppm | 1.894 ppm | 114.772 ppm | – | 96% | 97% | 16.37 μmoles per minute per ml | 68% | 10% | 39% | significantly decolorized
3 | COc1cc(N=Nc2ccc(S(=O)(=O)O)cc2)cc(OC)c1O [compound 4] | 27.04 μmoles per minute per ml | 0.22 μmoles per minute per ml | – | 83% | 15.19 μmoles per minute per ml | 1.637 ppm | 3.763 ppm | 4.218 ppm | 16.323 ppm | – | 93% | 92% | 14.33 μmoles per minute per ml | 79% | 8% | 39% | significantly decolorized
